Several values for one entry are separate records, joined by “and”; a condition that tells them apart may be missing. Equal entries are not always repeated. Where two headings read alike, the source gives them in different places. Where no end group is shown, it is not given here.
How the values were obtained:
[1] = test system: LAD2 human mast cells; test: cells; format: cell-based; conditions: for VEGF release / SP-induced VEGF release / HgCl2-induced VEGF release: 24 hours; for inhibition at 100 µM: Homo sapiens, LAD2, luteolin 0.1 mM, 10 min pretreatment
Protocol: (§1) LAD2 human mast cells were cultured in serum-free media (StemPro-34; GIBCO, Grand Island, N.Y.) supplemented with 2 mM L-glutamine, 100 IU/ml penicillin, 50 μg/ml streptomycin, and 100 ng/ml recombinant human Stem Cell Factor (rhSCF, obtained from Amgen, Inc., Thousand Oaks, Calif.). For optimal cell growth, LAD2 cell density was maintained between 0.5×106 and 1×10^6 cells/ml. Cell viability was assessed at 1 and 24 hr using trypan blue (0.3%) exclusion.
LAD2 cells were washed with DPBS and suspended in complete culture medium. LAD2 cells (2×10^5 cells/well/200 μl) were plated in 96 well flat bottom Falcon cell culture plates (Becton Dickinson, Franklin Lakes, N.J.) and were pre-incubated for 15 min at 37° C. in 5% CO2 atmosphere. The cells were then incubated with either SP (2 μM), HgCl2 (10 μM), or thimerosal (1, 10 μM) for 24 hours at 37° C. Control cells were treated with equal volume of only culture medium. For the inhibition experiments, thimerosal or methyl thiosalicylate were added together with the triggers, while luteolin was added 10 min before the triggers. After the reaction time, plates were centrifuged and the supernatant was gently collected from the wells and stored at −20° C. until VEGF was measured by Enzyme-Linked Immunosorbent Assay (ELISA) using a commercial kit (R&D Systems, Minneapolis, Minn.). The minimum detectable level of VEGF was 5 pg/ml.

[2] = test system: LAD2 human mast cells; conditions: thimerosal 10 μM, 24 hours, trypan blue exclusion
Protocol: as §1

[3] = test system: mast cells; test: Inhibition of mast cells by quercetin; format: cell-based; conditions: Mast cell
[4] = test system: Male BALB/6 mice; test: Brain blood vessel leakage by Evans blue extravasation; format: in vivo
Protocol: Male BALB/6 mice (6 weeks old, Jackson Laboratories, Bar Harbor, Me.) were injected in their tail vein with 0.2 ml of Evans blue (0.4%). Binding of Evans blue to the albumin found in the blood prevents Evans blue from escaping the circulation and constitutes a good biomarker from extravasation in brain parenchyma.
Mice were anesthetized with a single intraperitoneal injection of ketamine/xylazine (10 mg/kg and 80 mg/kg body weight, each), an intracardiac catheter was inserted in the left ventricle, blood was withdrawn, and 10 ml normal saline was administered intracardially to wash any Evans blue from the systemic circulation. The mice were then decapitated and the whole brain was removed. For brain extravasated Evans blue measurements, the brains were first weighed and the Evans blue was then extracted in 1 ml of N,N-dimethylformamide overnight at 55° C. and the optical density was measured at 620 nm using a PerkinElmer Luminescence Spectrophotometer (Perkin Elmer, Norwalk, Conn.). EB concentration was calculated using a standard curve and values were normalized to the tissue weight and expressed as arbitrary units/mg of tissue. Five animals per group were estimated to be sufficient for significant differences given the variability (<50%) observed. […] Values were then compared using the non-parametric Mann-Whitney U test. Significance is denoted by p<0.05.

[5] = test system: human cultured LAD2 cells; test: Release of mitochondrial DNA from LAD2 mast cells (real time PCR); format: cell-based; conditions: 5 min pretreatment with luteolin; neurotensin stimulation
Excerpt: Total DNA was extracted from supernatant fluids of cultured LAD2 cells using Qiagen DNA Micro extraction kit (Qiagen, Calif.). Mitochondrial specific DNA for Cytochrome B (Mt-CytB) and 7S (Mt-7S) was detected and quantified by Real time PCR using Taqman assay (Mt-7S: Hs02596861_s1; Mt-CYB: Hs02596867_s1; GAPDH: Hu, VIC, TAMRA, Applied Biosystems, Calif.). GAPDH DNA was used to exclude any genomic “contamination.”

[6] = substance 10 μM added together with SP (2 μM)

Molecule: Substance P (RPKPQQFFGLM-NH2; ends and bridges not checked; UniProt P20366 58-68, looked up) [SP, neuropeptide, non-allergic mast cell trigger]
- VEGF release ([1]; SP 2 μM alone): 445±16 pg/106 cells and 413.72±18 pg/106 cells

Molecule: [Cl][Hg][Cl] [HgCl2, Mercury chloride]
- VEGF release ([1]; 10 μM, no other trigger): 488±76 pg/106 cells
- SP-induced VEGF release [1, 6]: 553±63 pg/106 cells

Molecule: C[CH2][Hg][S]c1ccccc1C(=O)[O-].[Na+] [thimerosal]
- decrease of viability [2]: less than 10%
- VEGF release ([1]; 1 μM, no other trigger): 326±12 pg/106 cells
- VEGF release ([1]; 10 μM, no other trigger): 335±12 pg/106 cells
- SP-induced VEGF release [1, 6]: 274.5±35 pg/106 cells

Molecule: COC(=O)c1ccccc1S [Methyl thiosalicylate, methyl thiosalicylate]
- SP-induced VEGF release ([1]; substance 1 μM added together with SP (2 μM)): 281.63±24 pg/106 cells
- HgCl2-induced VEGF release ([1]; substance 1 μM added with HgCl2 (10 μM)): 258±29 pg/106 cells
- SP-induced VEGF release [1, 6]: 185.85±23 pg/106 cells
- HgCl2-induced VEGF release ([1]; substance 10 μM added with HgCl2 (10 μM)): 249.5±24 pg/106 cells

Molecule: O=c1c(O)c(-c2ccc(O)c(O)c2)oc2cc(O)cc(O)c12 [Quercetin]
- inhibition at 10 µM [3]: 80%

Molecule: O=c1cc(-c2ccc(O)c(O)c2)oc2cc(O)cc(O)c12 [luteolin, 5,7,3′,4′-tetrahydroxyflavone]
- inhibition of NT-induced brain blood vessel leakage ([4]; pretreatment with luteolin 40 mg/kg body weight mixed in olive kernel extract, NT 500 nmol/kg ip): completely inhibited
- inhibition of brain blood vessel leakage induced by IL-33 and NT ([4]; pretreatment with the same amount of luteolin (40 mg/kg), IL-33 1 microg/mouse plus NT): 50%
- inhibition at 100 µM ([1]; HgCl2 10 μM, read-out: inhibition of HgCl2-stimulated VEGF release): 100%
- inhibition at 100 µM ([1]; thimerosal 10 μM, read-out: inhibition of thimerosal-stimulated VEGF release): 100%
- inhibition of release of extracellular mt components from mast cells [5]: can be inhibited

B1: IL-33: interleukin-33, cytokine injected intraperitoneally (protein, UniProt O95760 1-270, looked up)
Interleukin-33: MKPKMKYSTNKISTAKWKNTASKALCFKLGKSQQKAKEVCPMYFMKLRSGLMIKKEACYFRRETTKRPSLKTGRKHKRHLVLAACQQQSTVECFAFGISGVQKYTRALHDSSITGISPITEYLASLSTYNDQSITFALEDESYEIYVEDLKKDEKKDKVLLSYYESQHPSNESGDGVDGKMLMVTLSPTKDFWLHANNKEHSVELHKCEKPLPDQAFFVLHNMHSNCVSFECKTDPGVFIGVKDNHLALIKVDSSENLCTENILFKLSET
- brain leakage ([4]; IL-33 1 microg/mouse, alone or with NT, Evans blue extravasation): no effect
